Like-named read-outs stand apart in the source and are kept apart here.
What was measured:
[1] = test system: SARS-CoV-2 virus (USA_WA1/2020); assay: microbe, parasite or virus in culture; assay type: cell-based
in vivo = assay: in vivo; set-up: species or system S.D. rats; conditions: male, S.D., rat, po
Procedure: Male S.D. rats weighing 160 to 210 g were used for the examination of SJA-6017. Each animal was kept in a room at a temperature of 23±2° C., a humidity of 55±10%, with lighting for 12 hours, and a ventilation frequency of 15 times/hour or more. The rats were fasted from the night before administration and feeding was resumed immediately after the administration. Water was taken freely.
(§1) For the examination of SNJ-1945, four groups of 1, 3, 10, and 30 mg/kg (n=3 for each) were set. For the examination of SJA-6017, two groups of 100 mg/kg (n=3 for each) and 500 mg/kg (n=8 for each) were set.
For SJA-6017, sodium carboxymethylcellulose was dissolved in distilled water to a concentration of 0.5% (w/v). A test substance was suspended in the resultant to prepare samples having concentrations of 10% (for […]) and 2% (for 100 mg/kg).
(§2) SNJ-1945 was orally administered forcibly a single time by using a gastric sonde at doses of 1, 3, 10, and 30 mg/4 mL/kg. SJA-6017 was orally administered forcibly a single time using a gastric sonde at a dose of 5 mL/kg.
In the SJA-6017 administration group, blood samples were collected from the abdominal aorta under ether anesthesia 30 minutes and 1, 2, 4 and 8 hours after administration. The resulting blood was immediately centrifuged at 5,000 rpm for 10 minutes, and plasma was collected.
Plasma (200 μL) obtained from the SJA-6017 administration group was placed in a brown Spitz tube, and 0.01 M HCl (0.5 mL) was added thereto, and diethyl ether (3 mL) was further added, followed by shaking for 10 minutes. Thereafter, centrifugation (3,000 rpm) for 10 minutes was performed to separate the aqueous layer from the diethyl ether phase. The lower aqueous layer alone was frozen in dry-ice acetone, and the diethyl ether layer was separated into another brown Spitz tube. Thereafter, drying was conducted under reduced pressure, and acetonitrile (100 μL) and a 0.01M hydrochloric acid solution (200 μL) of 5 mM phenylhydrazine hydrochloride were added, followed by stirring and dissolving. The solution was transferred to an HPLC vial and allowed to react for 1 hour at 40° C. using a water bath. 150 μL of this sample solution was analyzed by HPLC.
• Detector: UV absorbance spectrophotometer (measurement • wavelength: 272 nm) • Column: Capcell-pak SG-120 (250 mm) • Column temperature: 40° C. • Mobile phase: 0.02 M phosphate buffer (pH of 7.0)/acetonitrile mixture (45:55) • Flow rate: 1.0 mL/min
Cmax and AUC0-8 were calculated from the mean plasma concentration at each time point.

[2] = Pharmacokinetic (PK) measurement of SNJ-1945, oral, rats, LC/MS/MS; assay type: in vivo; conditions: male, S.D., rat plasma; for AUC(0-t): read-out: AUC0-8
Procedure: Eight-week-old male S.D. rats were used for the examination of SNJ-1945. Each animal was kept in a room at a temperature of 21.6° C. to 22.3° C., a humidity of 47.7% to 60.3%, with lighting for 12 hours/day, and a ventilation frequency of 6 to 20 times/hour. The rats were fasted from the evening of the day before administration, and feeding was resumed after the completion of blood sampling, which was conducted 8 hours after the administration. Water was taken freely.
as §1
For SNJ-1945, methylcellulose was dissolved in water for injection to a concentration of 1 w/v %. A test substance was suspended in the resultant to prepare samples having concentrations of 0.25 mg/mL (for 1 mg/kg), 0.75 mg/mL (for 3 mg/kg), 2.5 mg/mL (for 10 mg/kg), and 7.5 mg/mL (for 30 mg/kg). The administration solution was dispensed into brown glass bottles.
as §2
In the SNJ-1945 administration group, blood samples were taken over time from the subclavian vein 30 minutes and 1, 2, 4, and 8 hours after administration. The obtained blood was immediately centrifuged at 10000×g for 3 minutes, and plasma was collected.
Plasma (20 μL) obtained from the SNJ-1945 administration group was placed in a polypropylene tube, methanol (20 μL) was added thereto, and an internal standard solution (SNJ-1945-d7; 100 μL) was added thereto, followed by stirring for about 5 minutes. Thereafter, centrifugation (10,000×g) was performed for 5 minutes, and 100 μL of a supernatant was transferred to another polypropylene tube. 1 mmol/L EDTA-2K (100 μL) was added, followed by stirring for about 10 seconds. The solution was set in an autosampler and measured within 72 hours.
A Shimadzu 20AD LC System 2 (prominence UFLCXR system; Shimadzu Corporation) and a mass spectrometer (API5000; AB SCIEX) were used as measuring instruments. High-performance liquid chromatography was performed according to the following conditions. Column: CAPCELL CORE AQ, 2.7 μm, 2.1×50 mm (Shiseido Japan Co., Ltd.); column temperature: 60° C.; mobile phase A: 5 mmol/L ammonium hydrogen carbonate/l mmol/LEDTA-2K (500:1, v/v); mobile phase B: methanol; flow rate: 0.8 mL/min.
The mass spectrometer was set according to the following conditions: ionization mode: turbo ion spray; measurement mode: multiple reaction monitoring; detection mode: negative; collision gas: N2, 6 (number of valves opened); curtain gas: N2, 15 psi, ion source gas 1: air, 80 psi; ion source gas 2: air, 80 psi; ion spray voltage: −4500 V; temperature: 500° C.; channel electron multiplier: 1800 V or 2000 V. Monitoring ions and dwell time were set as shown in Table 4 below.
The measurement results of plasma concentration were analyzed by non-compartmental analysis in the pharmacokinetic analysis software Phoenix WinNonlin Ver. 6.3 (Pharsight Corporation as part of Certara), and each pharmacokinetic parameter was calculated in accordance with the method shown in Table 5 below.

[3] = test system: SARS-CoV-2 S pseudotype virus (wild type: WT); assay type: cell-based; conditions: 100 μM, ACE2-expressing HEK293T cells, GFP fluorescence, FIG. 1
[4] = test system: ACE2-expressing HEK293T cells
[5] = Severe acute respiratory syndrome coronavirus 2, Vero C1008, 72 h, read-out: CPE reduction (IC50)
[6] = Severe acute respiratory syndrome coronavirus 2, Vero C1008, 72 h; read-out: CPE reduction (IC50)

SMILES: CCC(CC)COC(=O)[C@H](C)N[P@](=O)(OC[C@H]1O[C@@](C#N)(c2ccc3c(N)ncnn23)[C@H](O)[C@@H]1O)Oc1ccccc1 [Remdesivir]
- IC50 [1, 5]: 10.6 µM

SMILES: CC(C)C[C@@H](C=O)NC(=O)[C@@H](NS(=O)(=O)c1ccc(F)cc1)C(C)C [SJA-6017]
- AUC(0-t) (in vivo; 100 mg/kg): 679 ng·h/mL
- Cmax (in vivo; 100 mg/kg): 284 ng/mL
- AUC(0-t) (in vivo; 500 mg/kg): 1840 ng·h/mL
- Cmax (in vivo; 500 mg/kg): 348 ng/mL
- IC50 [1, 6]: 0.21 µM

SMILES: CCOC(=O)[C@H]1O[C@@H]1C(=O)N[C@@H](CC(C)C)C(=O)NCCC(C)C [E64d]
- IC50 ([1]; read-out: CPE reduction (IC50)): 8.23 µM

SMILES: CCN(CCO)CCCC(C)Nc1ccnc2cc(Cl)ccc12 (centres unmarked) [Hydroxychloroquine]
- IC50 [1, 5]: 6.49 µM

SMILES: COCCOCCOC(=O)N[C@@H](CC(C)C)C(=O)N[C@@H](Cc1ccccc1)C(=O)C(=O)NC1CC1 [SNJ-1945]
- Cmax ([2]; single oral dose 1 mg/kg): 186 ng/mL
- AUC(0-t) ([2]; single oral dose 1 mg/kg): 168 ng·h/mL
- Cmax ([2]; single oral dose 3 mg/kg): 391 ng/mL
- AUC(0-t) ([2]; single oral dose 3 mg/kg): 380 ng·h/mL
- Cmax ([2]; single oral dose 10 mg/kg): 553 ng/mL
- AUC(0-t) ([2]; single oral dose 10 mg/kg): 691 ng·h/mL
- Cmax ([2]; single oral dose 30 mg/kg): 821 ng/mL
- AUC(0-t) ([2]; single oral dose 30 mg/kg): 1170 ng·h/mL
- entry inhibition of pseudotype virus into cells [3]: inhibits entry
- highest concentration at which test compound did not show cytotoxicity [4]: 100 µM
- IC50 [1, 6]: 1.52 µM

SMILES: CCN(CC)CCCC(C)Nc1ccnc2cc(Cl)ccc12 (centres unmarked) [Chloroquine]
- IC50 [1, 5]: 2.06 µM

— US20230390235A1, “THERAPEUTIC AGENT FOR COVID-19” (priority 2020, published 2023)
